Values joined by “and” are separate entries in the source; they are usually repeats but may differ in a detail not shown here. Equal values may be shown once.
Key:
[1] = system: mouse ear eczema model (spleen); assay: Mouse ear eczema model: body weight, spleen weight and spleen index; assay type: in vivo, BALB/c mice; conditions: for Ranking in terms of spleen weight and spleen index: AD model, positive drug, Compound 1 and Compound 2 groups; for Therapeutic effect for AD / Therapeutic effect versus the positive drug: atopic dermatitis mouse models; for Therapeutic effect versus the positive drug: positive drug = 0.050% dexamethasone acetate cream; for Spleen weights and spleen indexes versus blank control group: compared with the blank control group; for Spleen weight, mean value: group mean; for Spleen weight, mean value / Spleen weight: day 11, wet weight; for Spleen weight: individual mice
Description: (1) Preparation method of a JAK-PROTAC cream: the same as in Example 1.
(2) Positive therapeutic drug: a 0.050% dexamethasone acetate cream (manufacturer: Shanghai Skin Disease Hospital).
(3) Blank matrix: a matrix component produced after the active ingredient JAK-PROTAC was removed from the cream.
(4) Molding agent: solution of calcipotriol in ethanol (manufacturer: MACKLIN).
(1) The mice were randomly divided into a blank control group (6 mice) (Control), a model group (6 mice) (Model), a positive drug group (6 mice) (Positive), a Compound 1-treating group (0.15% JAK-PROTAC cream 1 for external use) (6 mice) (Treat 1), and a Compound 2-treating group (0.15% JAK-PROTAC cream 2 for external use) (6 mice) (Treat 2).
(2) Molding was conducted in the following manner:
(§1) A. On day 0 to day 7 of the modeling: At 9 a.m., the blank control group was administered with the cream matrix, the model group was administered with the molding agent, the positive group was administered with the molding agent, the Compound 1-treating group was administered with the molding agent, and the Compound 2-treating group was administered with the molding agent. At 5 p.m., the blank control group was not treated, the model group was administered with the cream matrix, the positive group was administered with the dexamethasone acetate cream, the Compound 1-treating group was administered with the JAK-PROTAC cream 1, and the Compound 2-treating group was administered with the JAK-PROTAC cream 2.
as §1, with “B.” for “A.”, “8” for “0”, “10” for “7”, “modeling, at” for “modeling: At”, “not treated,” for “administered with the molding agent,”, “not treated.” for “administered with the molding agent.”
C. On day 11 of the modeling: At 9 a.m., the blank control group was administered with the cream matrix, the model group was not treated, the positive group was not treated, the Compound 1-treating group was not treated, and the Compound 2-treating group was not treated. At 1 p.m., the mice were sacrificed through cervical dislocation, and the spleen and two ears of each mouse were collected.
(3) Spleen index testing:
After the mice were sacrificed, a spleen tissue was collected, dried with a filter paper to remove blood stains on a surface, and weighed for a wet weight. A spleen index was calculated as follows: spleen index=10,000×spleen weight (g)/body weight (g).
(2) A body weight and thicknesses of two ears of each mouse were recorded daily.
(3) After the experiment was completed, a spleen index of each mouse was calculated.
The data of the present disclosure was processed with the Excel and GraphPad software. The experimental data was tested by one-way ANOVA. The post-hoc multiple comparison was conducted with the least significant difference (LSD). P<0.05 indicated a significant difference.

[2] = HaCaT cell viability by CCK-8 assay; assay type: cell-based; conditions: human, hacat cells
Procedure: (1) Reagents: compound 1: a compound shown by Compound 1 in Formula (I); compound 2: a compound shown by Compound 2 in Formula (I); Dulbecco's Modified Eagle Medium (DMEM) high-glucose medium: Wuhan Pricella Biotechnology Co., Ltd.; South American fetal bovine serum (FBS) and trypsin: Gibco, USA; penicillin-streptomycin: Hyclone, USA; and CCK-8 kit: Beyotime.
(§2) (2) Instruments: CO2 incubator: HERA cell 240; and microplate reader: Thermo Fisher Scientific, USA.
The cultured HaCaT cells were counted under a microscope to be about 2×10^6 cells/mL, then inoculated in a 96-well plate at about 6×10^3 cells/well, and incubated overnight in a 37 °C and 5% CO2 incubator. After cells were adherent, a medium was removed, and 200 μL of each of complete media including compounds 1 and 2 at different concentrations (0.05 μg/mL, 0.1 μg/mL, 0.2 μg/mL, 0.5 μg/mL, 1 μg/mL, 2 μg/mL, 5 μg/mL, 10 μg/mL, and 20 μg/mL) was added to a corresponding well. The 0 μg/mL group was set as a blank control group. Three replicate wells were set for each treatment of the compounds 1 and 2. The plate was incubated in a CO2 incubator for 24 h. 20 μL of CCK-8 reagent was added to each well, and the plate was incubated in a CO2 incubator for 1 h and then placed in the microplate reader to read the absorbance at 450 nm. The test was repeated 3 times, and a mean value was taken. The measured absorbance was substituted into a cell viability calculation formula to calculate the cell viability.
The data of the present disclosure was processed with the Excel and Graphpad software. The experimental data was tested by one-way ANOVA. The post-hoc multiple comparison was conducted with the LSD. P<0.05 indicated a significant difference.

[3] = system: RAW 264.7 cells; assay: NO content assay in LPS+IFN-γ induced RAW 264.7 macrophage inflammatory model; assay type: cell-based; conditions: for NO level versus LPS+IFN-γ model group: 0.05, 0.1, 0.2 g/mL (so in the source), 0.4 and 0.8 μg/mL, 24 h, LPS 0.5 μg/mL + IFN-γ 2 ng/mL; for Inhibition of inflammation: concentration range of 0.05 μg/mL to 0.8 μg/mL; for Concentration of optimal anti-inflammatory effect: tested 0.05 μg/mL to 0.8 μg/mL
Procedure: (1) Reagents: compound 1: a compound shown by Compound 1 in formula (I); compound 2: a compound shown by Compound 2 in Formula (I); DMEM high-glucose medium: Wuhan Pricella Biotechnology Co., Ltd.; South American FBS and trypsin: Gibco, USA; penicillin-streptomycin: Hyclone, USA; and nitric oxide (NO) assay kit: Beyotime.
as §2
Induction of an RAW 264.7 macrophage inflammatory model with lipopolysaccharide (LPS) and interferon-gamma (IFN-γ): RAW 264.7 cells in a logarithmic growth phase were taken and inoculated in a 96-well cell culture plate at 20×10^3 cells/well, and cultured for 24 h until the cells were adherent. Ablank control group of 0 μg/mL, a model group of 0.5 μg/mL LPS+2 ng/mL IFN-γ, and experimental groups of compounds 1 and 2 at concentrations of 0.05 μg/mL, 0.1 μg/mL, 0.2 μg/mL, 0.4 μg/mL, and 0.8 μg/mL were set. Three replicate wells were set for each group. In the blank control group, cells were incubated with serum-free DMEM. In the LPS+IFN-γ model group, cells were incubated with serum-free DMEM. After 24 h of incubation, morphological changes of cells were observed, and a concentration of NO was determined according to instructions of the NO assay kit.
The data of the present disclosure was processed with the Excel and Graphpad software. The experimental data were tested by one-way ANOVA. The post-hoc multiple comparison was conducted with the LSD. P<0.05 indicated a significant difference.

## N#CC[C@H](C1CCCC1)n1cc(-c2nc(Nc3ccc(C(=O)NCCCCNc4cccc5c4C(=O)N(C4CCC(=O)NC4=O)C5=O)cc3)nc3[nH]ccc23)cn1 (stereo partly drawn) [Compound 1]
[1]
  Ranking in terms of spleen weight and spleen index: the Compound 1-treating group>the Compound 2-treating group>the positive drug group>the AD model group (P<0.05)
  Therapeutic effect for AD: had a therapeutic effect for AD, could improve the inflammatory responses in atopic dermatitis mouse models
  Therapeutic effect versus the positive drug: exhibited a better therapeutic effect than the positive drug
  Spleen weights and spleen indexes versus blank control group: significantly reduced (P<0.05)
  Spleen weight, mean value: 0.0862 g
  Spleen weight: 0.0798 g and 0.0934 g and 0.0855 g
[2]; 0.05 μg/mL
  viability at 24 h: 80.5%
[2]; 0.10 μg/mL
  viability at 24 h: 85.7%
[2]; 0.20 μg/mL
  viability at 24 h: 90.7%
[2]; 0.50 μg/mL
  viability at 24 h: 98.3%
[2]; 1.00 μg/mL
  viability at 24 h: 98.3%
[2]; 2.00 μg/mL
  viability at 24 h: 93.8%
[2]; 5.00 μg/mL
  viability at 24 h: 108%
[2]; 10.00 μg/mL
  viability at 24 h: 110%
[2]; 20.00 μg/mL
  viability at 24 h: 80.3%
[3]
  NO level versus LPS+IFN-γ model group: reduced
  Inhibition of inflammation: could effectively inhibit the inflammation
  Concentration of optimal anti-inflammatory effect: 0.4 µg/mL

## CCS(=O)(=O)N1CC(CC#N)(n2cc(-c3nc(Nc4ccc(C(=O)NCCCCNc5cccc6c5C(=O)N(C5CCC(=O)NC5=O)C6=O)cc4)nc4[nH]ccc34)cn2)C1 (stereo not drawn) [Compound 2]
[1]
  Ranking in terms of spleen weight and spleen index: the Compound 1-treating group>the Compound 2-treating group>the positive drug group>the AD model group (P<0.05)
  Therapeutic effect for AD: had a therapeutic effect for AD, could improve the inflammatory responses in atopic dermatitis mouse models
  Therapeutic effect versus the positive drug: exhibited a better therapeutic effect than the positive drug
  Spleen weights and spleen indexes versus blank control group: significantly reduced (P<0.05)
  Spleen weight, mean value: 0.0732 g
  Spleen weight: 0.0749 g and 0.0739 g and 0.0708 g
[2]; 0.05 μg/mL
  viability at 24 h: 95.5%
[2]; 0.10 μg/mL
  viability at 24 h: 95.6%
[2]; 0.20 μg/mL
  viability at 24 h: 106%
[2]; 0.50 μg/mL
  viability at 24 h: 113%
[2]; 1.00 μg/mL
  viability at 24 h: 101%
[2]; 2.00 μg/mL
  viability at 24 h: 107%
[2]; 5.00 μg/mL
  viability at 24 h: 124%
[2]; 10.00 μg/mL
  viability at 24 h: 120%
[2]; 20.00 μg/mL
  viability at 24 h: 93.3%
[3]
  NO level versus LPS+IFN-γ model group: reduced
  Inhibition of inflammation: could effectively inhibit the inflammation
  Concentration of optimal anti-inflammatory effect: 0.4 µg/mL
